The target in this assay is FXR (Homo sapiens (Human), UniProt Q96RI1). The assay is described as follows: FXR EC50 (FXR agonist activity reported with each example). The class given is cell-based.
FXR, sequence (Q96RI1 262-486): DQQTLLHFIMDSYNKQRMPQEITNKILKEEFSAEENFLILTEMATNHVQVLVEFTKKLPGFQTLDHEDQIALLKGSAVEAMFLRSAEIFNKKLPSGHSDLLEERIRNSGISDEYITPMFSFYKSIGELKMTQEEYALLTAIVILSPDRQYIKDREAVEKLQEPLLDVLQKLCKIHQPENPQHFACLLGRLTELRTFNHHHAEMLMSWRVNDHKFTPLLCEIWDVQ
One may read the EC50 as the concentration that produces a half-maximal response. A low value points to higher potency in that assay. As for `Cc1cc(C(=O)O)nc2c(F)cc(OCC34CCC(OCc5c(-c6c(Cl)cncc6Cl)noc5C5CC5)(CC3)CC4)cc12` [Example 307, 6-((4-((5-cyclopropyl-3-(3,5-dichloropyridin-4-yl)isoxazol-4-yl)methoxy)bicyclo[2.2.2]octan-1-yl)methoxy)-8-fluoro-4-methylquinoline-2-carboxylic acid], the concentration giving a half-maximal response (EC50) turned out to be 20 nM.
`NC(=O)c1cc(F)c2nc(C(O)C34CCC(OCc5c(-c6c(Cl)cccc6Cl)noc5C5CC5)(CC3)CC4)sc2c1` (centres unmarked) [Example 123, 2-((4-((5-cyclopropyl-3-(2,6-dichlorophenyl)isoxazol-4-yl)methoxy)bicyclo[2.2.2]octan-1-yl)(hydroxy)methyl)-4-fluorobenzo[d]thiazole-6-carboxamide] came in with an EC50 of 280 nM. This EC50 is about 14-fold higher than that of the compound before.
In the case of `COc1ccc(-c2noc(C34CCC(/C=C/c5c(-c6c(Cl)cncc6Cl)noc5C5CC5)(CC3)CO4)n2)cc1C(=O)O` [Example 492, (E)-5-(5-(4-(2-(5-cyclopropyl-3-(3,5-dichloropyridin-4-yl)isoxazol-4-yl)vinyl)-2-oxabicyclo[2.2.2]octan-1-yl)-1,2,4-oxadiazol-3-yl)-2-methoxybenzoic acid], the EC50 turned out to be 250 nM.
Under `O=C(O)c1ccc(C23CCC(CNc4c(-c5c(Cl)cccc5Cl)noc4C4CC4)(CC2)CO3)cc1` [Example 203, 4-(4-(((5-cyclopropyl-3-(2,6-dichlorophenyl)isoxazol-4-yl)amino)methyl)-2-oxabicyclo[2.2.2]octan-1-yl)benzoic acid] stands 420 nM.
Compound `CCn1nc(OCC23CCC(OCc4c(-c5c(Cl)cncc5Cl)noc4C4CC4)(CC2)CC3)cc1C(=O)O` [Example 316] came in with an EC50 of 64 nM. Against the preceding compound, the EC50 is about 6.6-fold lower.
In the case of `O=C(O)c1cc(-c2noc(C34CCC(/C=C/c5c(-c6c(Cl)cncc6Cl)noc5C5CC5)(CC3)OC4)n2)cc(C(F)(F)F)c1` [Example 494, (E)-3-(5-(1-(2-(5-cyclopropyl-3-(3,5-dichloropyridin-4-yl)isoxazol-4-yl)vinyl)-2-oxabicyclo[2.2.2]octan-4-yl)-1,2,4-oxadiazol-3-yl)-5-(trifluoromethyl)benzoic acid], the EC50 turned out to be 130 nM. This EC50 is about 2-fold higher than that of the compound before.
`Cc1cc(C(=O)O)ncc1C#CC12CCC(OCc3c(-c4c(Cl)cncc4Cl)noc3C3CC3)(CC1)CC2` [Example 387] registered an EC50 of 57 nM. Compared with the last compound, the EC50 is about 2.3-fold lower.
`O=C(O)c1cccc(-c2noc(C34CCC(COCc5c(-c6c(Cl)cccc6Cl)noc5C5CC5)(CC3)CO4)n2)c1` [Example 210, 3-(5-(4-(((5-cyclopropyl-3-(2,6-dichlorophenyl)isoxazol-4-yl)methoxy)methyl)-2-oxabicyclo[2.2.2]octan-1-yl)-1,2,4-oxadiazol-3-yl)benzoic acid] had a concentration for a half-maximal effect (EC50) of 960 nM.
`COC(=O)c1ccc(NC(=S)C23CCC(COCc4c(-c5c(Cl)cccc5Cl)noc4C4CC4)(CC2)CC3)c(Cl)c1` [Intermediate 168A, methyl 3-chloro-4-(4-(((5-cyclopropyl-3-(2,6-dichlorophenyl)isoxazol-4-yl)methoxy)methyl)bicyclo[2.2.2]octane-1-carbothioamido)benzoate]: it took 4380 nM to reach a half-maximal effect (EC50).
Turning to `COc1ccc2nc(C34CCC(OCc5c(-c6c(Cl)cncc6Cl)noc5C5CC5)(CC3)CC4)ccc2c1C(=O)O` [Example 428], it took 120 nM to reach a half-maximal effect (EC50).
Compound `O=C(O)c1cccc(NC(=O)C23CCC(C=Cc4c(-c5c(Cl)cccc5Cl)noc4C4CC4)(CC2)C3)c1` [Example 230] showed an EC50 of 890 nM.
`COc1c(C(=O)O)cccc1-c1noc(C23CCC(/C=C/c4c(-c5c(Cl)cncc5Cl)noc4C4CC4)(CC2)CC3)n1` [Example 448, (E)-3-(5-(4-(2-(5-cyclopropyl-3-(3,5-dichloropyridin-4-yl)isoxazol-4-yl)vinyl)bicyclo[2.2.2]octan-1-yl)-1,2,4-oxadiazol-3-yl)-2-methoxybenzoic acid] displayed a concentration giving a half-maximal response (EC50) of 10 nM. This EC50 lies about 89-fold lower than the previous one.
`COC(=O)c1cccc(NC(=O)C23CCC(C=Cc4c(-c5c(Cl)cccc5Cl)noc4C4CC4)(CC2)C3)c1` [Example 229]: the response was half-maximal at 3600 nM (EC50).
Regarding `O=C(O)c1cccc(/C=C/C23CCC(COCc4c(-c5ccccc5OC(F)(F)F)noc4C4CC4)(CC2)CO3)c1` [Example 197, (E)-3-(2-(4-(((5-cyclopropyl-3-(2-(trifluoromethoxy)phenyl)isoxazol-4-yl)methoxy)methyl)-2-oxabicyclo[2.2.2]octan-1-yl)vinyl)benzoic acid], the EC50 came out at 90 nM. Compared with the last compound, the EC50 is about 40-fold lower.
For the compound `O=C(O)c1cccc2nc(C34CCC(OCc5c(-c6c(Cl)cncc6Cl)noc5C5CC5)(CC3)CC4)ccc12` [Example 368], the response was half-maximal at 36 nM (EC50).
In turn, `O=C(O)c1cc(O)c2cc(OCC34CCC(OCc5c(-c6c(Cl)cncc6Cl)noc5C5CC5)(CC3)CC4)ccc2n1` [Example 327, 6-((4-((5-cyclopropyl-3-(3,5-dichloropyridin-4-yl)isoxazol-4-yl)methoxy)bicyclo[2.2.2]octan-1-yl)methoxy)-4-hydroxyquinoline-2-carboxylic acid] displayed an EC50 of 170 nM. This EC50 lies about 4.7-fold higher than the previous one.
The compound `COc1ccc(-c2noc(C34CCC(OCc5c(-c6ccccc6OC(F)(F)F)noc5C5CC5)(CC3)CC4)n2)cc1C(=O)O` [Example 4, 5-(5-(4-((5-cyclopropyl-3-(2-(trifluoromethoxy)phenyl)isoxazol-4-yl)methoxy)bicyclo[2.2.2]octan-1-yl)-1,2,4-oxadiazol-3-yl)-2-methoxybenzoic acid] had an EC50 of 110 nM.
Regarding `O=C(O)c1cccc(/C=C/C23CCC(OCc4c(-c5c(Cl)cccc5Cl)noc4C4CC4)(CC2)CC3)c1` [Example 7, (E)-3-(2-(4-((5-cyclopropyl-3-(2,6-dichlorophenyl)isoxazol-4-yl)methoxy)bicyclo[2.2.2]octan-1-yl)vinyl)benzoic acid], the EC50 is 150 nM.
Compound `O=C(O)c1cccc(/C=C/C23CCC(COCc4c(-c5c(Cl)cccc5Cl)noc4C4CC4)(CC2)CO3)c1` [Example 200] registered an EC50 of 220 nM.
`O=C(O)[C@@H]1CCC[C@H](OCC23CCC(OCc4c(-c5ccccc5OC(F)(F)F)noc4C4CC4)(CC2)CC3)C1` [Example 80] displayed an EC50 of 5100 nM. This EC50 is about 23-fold higher than that of the compound before.
As to `O=C(O)c1cccc(C23CCC(COCc4c(-c5ccccc5OC(F)(F)F)noc4C4CC4)(CC2)CO3)c1` [Example 204], a half-maximal effect (EC50) was put at 440 nM.
Under `O=C(O)c1ccc(C23CCC(COCc4c(-c5c(Cl)cccc5Cl)noc4C4CC4)(CC2)CO3)cc1` [Example 201] stands 270 nM; under `O=C(O)c1cc(OC(F)F)cc(-c2noc(C34CCC(/C=C/c5c(-c6c(Cl)cncc6Cl)noc5C5CC5)(CC3)CO4)n2)c1` [Example 479, (E)-3-(5-(4-(2-(5-cyclopropyl-3-(3,5-dichloropyridin-4-yl)isoxazol-4-yl)vinyl)-2-oxabicyclo[2.2.2]octan-1-yl)-1,2,4-oxadiazol-3-yl)-5-(difluoromethoxy)benzoic acid], 360 nM; under `O=C(O)c1ccc(C23CCC(COCc4c(-c5c(Cl)cccc5Cl)noc4C4CC4)(CC2)CC3)cc1` [Example 174, 4-(4-(((5-cyclopropyl-3-(2,6-dichlorophenyl)isoxazol-4-yl)methoxy)methyl)bicyclo[2.2.2]octan-1-yl)benzoic acid], 210 nM.
`O=C(O)c1ccc2c(c1)CN(CC13CCC(OCc4c(-c5c(Cl)cccc5Cl)noc4C4CC4)(CC1)CC3)CC2` [Example 362, 2-((4-((5-cyclopropyl-3-(2,6-dichlorophenyl)isoxazol-4-yl)methoxy)bicyclo[2.2.2]octan-1-yl)methyl)-1,2,3,4-tetrahydroisoquinoline-7-carboxylic acid] returned an EC50 of 170 nM.
`O=C(O)c1cc(OCC23CCC(/C=C/c4c(-c5c(Cl)cncc5Cl)noc4C4CC4)(CC2)OC3)cc(C(F)(F)F)c1` [Example 473, (E)-3-((1-(2-(5-cyclopropyl-3-(3,5-dichloropyridin-4-yl)isoxazol-4-yl)vinyl)-2-oxabicyclo[2.2.2]octan-4-yl)methoxy)-5-(trifluoromethyl)benzoic acid] registered an EC50 of 320 nM. This EC50 is about 1.9-fold higher than that of the compound before.
In the case of `CC(C)Oc1cc(-c2noc(C34CCC(OCc5c(-c6c(Cl)cnn6C)noc5C5CC5)(CC3)CC4)n2)cc(C(=O)O)n1` [Example 274, 4-(5-(4-((3-(4-chloro-1-methyl-1H-pyrazol-5-yl)-5-cyclopropylisoxazol-4-yl)methoxy)bicyclo[2.2.2]octan-1-yl)-1,2,4-oxadiazol-3-yl)-6-isopropoxypicolinic acid], the EC50 is 890 nM.
For `O=C(O)c1cc(C#CC23CCC(OCc4c(-c5c(Cl)cncc5Cl)noc4C4CC4)(CC2)CC3)cc2[nH]ncc12` [Example 411], the EC50 came to 89 nM.
Take `O=C(O)c1ccc2nc(C34CCC(OCc5c(-c6c(Cl)cccc6Cl)noc5C5CC5)(CC3)CC4)ncc2c1` [Example 24, 2-(4-((5-cyclopropyl-3-(2,6-dichlorophenyl)isoxazol-4-yl)methoxy)bicyclo[2.2.2]octan-1-yl)quinazoline-6-carboxylic acid]: a half-maximal response (EC50) required 250 nM.

For the origin of these results see patent US10730863B2, “Bridged bicyclic compounds as farnesoid X receptor modulators” (BRISTOL-MYERS SQUIBB COMPANY, priority 2017, dated 2020).
